Active and inactive are the calls of the source.
Tests used:
Leucine aminopeptidase = biological target: T1, Leucine aminopeptidase (Plasmodium falciparum 3D7, UniProt Q8IL11); assay: P. falciparum M17LAP inhibitors, primary screen, biochemical, fluorogenic H-Leu-NHMec substrate, 1536-well (AID 1619); format: functional
T1 sequence (Q8IL11 whole entry): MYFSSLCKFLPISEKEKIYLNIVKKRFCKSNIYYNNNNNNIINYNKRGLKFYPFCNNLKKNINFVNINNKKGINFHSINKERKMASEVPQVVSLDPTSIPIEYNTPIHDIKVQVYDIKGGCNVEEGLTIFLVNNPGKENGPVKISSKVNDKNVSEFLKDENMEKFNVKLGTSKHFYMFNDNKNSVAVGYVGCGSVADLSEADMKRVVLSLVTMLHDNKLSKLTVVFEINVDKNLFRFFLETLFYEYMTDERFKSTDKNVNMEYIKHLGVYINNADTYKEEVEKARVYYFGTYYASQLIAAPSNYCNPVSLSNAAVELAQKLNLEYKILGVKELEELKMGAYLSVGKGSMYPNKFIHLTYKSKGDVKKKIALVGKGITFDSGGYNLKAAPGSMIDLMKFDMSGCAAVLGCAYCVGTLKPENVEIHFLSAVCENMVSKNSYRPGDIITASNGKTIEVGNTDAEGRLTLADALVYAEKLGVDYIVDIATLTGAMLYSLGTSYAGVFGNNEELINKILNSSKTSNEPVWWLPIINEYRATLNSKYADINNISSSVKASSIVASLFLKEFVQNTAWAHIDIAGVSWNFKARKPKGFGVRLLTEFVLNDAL

[1] = HIV-1 AD8 envelope cell-cell fusion blockers – cherry-pick, dose response (AID 652062); format: functional, cell-based;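 further: luciferase signal from cell-cell fusion driven by HIV-1 clade B AD8 Env; potency is for inhibitors of fusion seen as a drop in luminescence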
[2] = biological target: T2, Calpain-2 catalytic subunit (Sus scrofa, UniProt P43367); assay: m-calpain protease blockers, concentration series – biochemical, fluorogenic peptide substrate, dose response (AID 1420); format: functional
T2 sequence (P43367 whole entry): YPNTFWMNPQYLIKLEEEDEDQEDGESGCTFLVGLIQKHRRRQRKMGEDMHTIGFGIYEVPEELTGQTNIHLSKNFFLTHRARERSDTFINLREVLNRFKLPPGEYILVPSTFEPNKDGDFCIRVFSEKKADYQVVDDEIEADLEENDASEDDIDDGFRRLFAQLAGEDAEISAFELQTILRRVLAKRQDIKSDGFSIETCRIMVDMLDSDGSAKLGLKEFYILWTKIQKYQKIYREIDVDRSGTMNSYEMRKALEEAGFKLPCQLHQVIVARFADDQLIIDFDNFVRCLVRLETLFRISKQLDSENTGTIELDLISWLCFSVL

[3] = off-target signal loss in HeLa-CEM21 co-culture – HeLa F-luc CTL cells, cherry-picked, counter-screen for HIV-1 Env fusion inhibitor project, dose response (AID 652040); format: functional, cell-based;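 further: potency for signal decrease marking cytotoxic or nonspecific inhibition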
[4] = blockers of HIV-1 ZM109 envelope-driven cell-cell fusion – HeLa effector, CEM target cells, luciferase, cherry-pick, dose response (AID 652058); format: functional, cell-based;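 further: luciferase signal from HIV-1 Env mediated cell-cell fusion of effector and target cells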
[5] = blockers of HIV-1 envelope-mediated cell-cell fusion – cherry-pick, dose response (AID 652057); format: functional, cell-based
Protein RecA = biological target: T3, Protein RecA (Mycobacterium tuberculosis, UniProt P9WHJ3); assay: Fluorescence Cell-Free Homogeneous Dose Retest to Identify Inhibitors of RecA-Intein Splicing Activity. [Related pubchem assays (depositor defined):AID2097, AID2223, AID489010, AID492950]; format: functional
T3 sequence (P9WHJ3 whole entry): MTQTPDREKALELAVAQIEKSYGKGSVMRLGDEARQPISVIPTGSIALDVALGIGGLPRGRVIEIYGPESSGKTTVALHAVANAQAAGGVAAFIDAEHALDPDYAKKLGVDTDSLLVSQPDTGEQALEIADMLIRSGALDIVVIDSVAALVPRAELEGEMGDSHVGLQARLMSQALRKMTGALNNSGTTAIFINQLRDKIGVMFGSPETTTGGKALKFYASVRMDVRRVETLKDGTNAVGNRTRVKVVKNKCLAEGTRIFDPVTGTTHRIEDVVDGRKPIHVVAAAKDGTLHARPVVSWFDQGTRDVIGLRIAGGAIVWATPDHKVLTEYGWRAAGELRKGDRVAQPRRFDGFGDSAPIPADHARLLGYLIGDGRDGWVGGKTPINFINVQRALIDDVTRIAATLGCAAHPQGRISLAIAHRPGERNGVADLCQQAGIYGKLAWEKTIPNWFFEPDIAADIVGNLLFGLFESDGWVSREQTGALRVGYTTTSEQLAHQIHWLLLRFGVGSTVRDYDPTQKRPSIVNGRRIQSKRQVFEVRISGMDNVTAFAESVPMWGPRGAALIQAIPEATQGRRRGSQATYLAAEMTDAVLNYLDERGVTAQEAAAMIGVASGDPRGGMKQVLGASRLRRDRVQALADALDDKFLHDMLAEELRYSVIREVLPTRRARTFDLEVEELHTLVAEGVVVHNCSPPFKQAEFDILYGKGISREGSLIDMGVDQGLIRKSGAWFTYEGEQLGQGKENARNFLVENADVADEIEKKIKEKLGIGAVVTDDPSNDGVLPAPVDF

[6] = biological target: T4, Replicative DNA helicase DnaB (Mycobacterium tuberculosis, UniProt P9WMR3); assay: DnaB intein splicing inhibitors, dose response, biochemical, cell-free fluorescence (AID 449749); format: functional
T4 sequence (P9WMR3 whole entry): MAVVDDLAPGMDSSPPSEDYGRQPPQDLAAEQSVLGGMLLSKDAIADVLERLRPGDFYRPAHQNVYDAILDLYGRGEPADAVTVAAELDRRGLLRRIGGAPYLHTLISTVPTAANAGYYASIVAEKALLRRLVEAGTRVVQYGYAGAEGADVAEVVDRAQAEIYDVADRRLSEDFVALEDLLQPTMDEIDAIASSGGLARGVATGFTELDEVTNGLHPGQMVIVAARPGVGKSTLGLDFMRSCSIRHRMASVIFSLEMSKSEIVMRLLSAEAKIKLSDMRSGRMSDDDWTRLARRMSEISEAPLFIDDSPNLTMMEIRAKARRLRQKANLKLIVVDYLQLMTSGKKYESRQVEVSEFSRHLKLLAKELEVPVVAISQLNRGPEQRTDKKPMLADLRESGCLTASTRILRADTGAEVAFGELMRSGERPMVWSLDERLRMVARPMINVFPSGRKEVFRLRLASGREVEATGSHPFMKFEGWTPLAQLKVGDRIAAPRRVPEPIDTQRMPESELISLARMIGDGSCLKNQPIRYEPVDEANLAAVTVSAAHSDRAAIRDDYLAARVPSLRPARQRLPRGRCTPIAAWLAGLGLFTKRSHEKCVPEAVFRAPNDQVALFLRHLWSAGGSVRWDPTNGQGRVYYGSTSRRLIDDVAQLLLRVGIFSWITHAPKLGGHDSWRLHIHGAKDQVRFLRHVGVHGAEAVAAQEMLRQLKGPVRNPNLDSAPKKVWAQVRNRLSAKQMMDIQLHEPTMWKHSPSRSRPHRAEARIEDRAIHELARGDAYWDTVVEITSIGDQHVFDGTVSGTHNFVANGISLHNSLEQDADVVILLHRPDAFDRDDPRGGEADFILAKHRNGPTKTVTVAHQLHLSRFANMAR

[7] = biological target: T5, Mannose-6-phosphate isomerase (Homo sapiens, UniProt P34949); assay: MPI inhibition at elevated mannose 6-phosphate – biochemical, fluorescence intensity, high mannose 6-phosphate, primary screen (AID 1220)
T5 sequence (P34949 whole entry): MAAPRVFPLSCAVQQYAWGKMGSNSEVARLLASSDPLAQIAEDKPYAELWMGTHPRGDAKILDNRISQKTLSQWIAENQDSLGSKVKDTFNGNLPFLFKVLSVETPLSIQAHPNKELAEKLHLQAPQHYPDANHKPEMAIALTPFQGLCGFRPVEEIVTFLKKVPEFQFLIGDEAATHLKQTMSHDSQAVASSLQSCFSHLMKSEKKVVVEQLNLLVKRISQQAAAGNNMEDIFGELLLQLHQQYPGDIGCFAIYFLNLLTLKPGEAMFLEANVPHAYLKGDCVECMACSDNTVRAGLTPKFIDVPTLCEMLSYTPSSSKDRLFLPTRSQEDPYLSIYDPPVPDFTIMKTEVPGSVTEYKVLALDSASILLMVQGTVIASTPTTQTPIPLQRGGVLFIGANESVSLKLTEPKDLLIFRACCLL

[8] = biological target: Mitogen-activated protein kinase 10 (Homo sapiens, UniProt P53779); assay: Dose response biochemical screening assay for inhibitors of c-Jun N-Terminal Kinase 3 (JNK3). [Related pubchem assays: 746 ]
H4 = assay: Luminescence Cell-Based Dose Response HTS to Identify Activators of 5'UTR Stem-Loop Driven Prion Protein mRNA Translation in H4 Neuroglioblastoma Cells. [Related pubchem assays: 1829 (Project Summary), 1814 (Primary HTS)]; format: functional; conditions: Homo sapiens
[9] = Luminescence Cell-Based Dose Response HTS to Identify Activators of Luciferase Translation or Activity in H4 […] Cells. [Related pubchem assays: 1829 (Project Summary), 1814 (Primary HTS)]; format: functional
Protein skinhead-1 = biological target: T6, Protein skinhead-1 (Caenorhabditis elegans, UniProt P34707); format: functional
T6 sequence (P34707 whole entry): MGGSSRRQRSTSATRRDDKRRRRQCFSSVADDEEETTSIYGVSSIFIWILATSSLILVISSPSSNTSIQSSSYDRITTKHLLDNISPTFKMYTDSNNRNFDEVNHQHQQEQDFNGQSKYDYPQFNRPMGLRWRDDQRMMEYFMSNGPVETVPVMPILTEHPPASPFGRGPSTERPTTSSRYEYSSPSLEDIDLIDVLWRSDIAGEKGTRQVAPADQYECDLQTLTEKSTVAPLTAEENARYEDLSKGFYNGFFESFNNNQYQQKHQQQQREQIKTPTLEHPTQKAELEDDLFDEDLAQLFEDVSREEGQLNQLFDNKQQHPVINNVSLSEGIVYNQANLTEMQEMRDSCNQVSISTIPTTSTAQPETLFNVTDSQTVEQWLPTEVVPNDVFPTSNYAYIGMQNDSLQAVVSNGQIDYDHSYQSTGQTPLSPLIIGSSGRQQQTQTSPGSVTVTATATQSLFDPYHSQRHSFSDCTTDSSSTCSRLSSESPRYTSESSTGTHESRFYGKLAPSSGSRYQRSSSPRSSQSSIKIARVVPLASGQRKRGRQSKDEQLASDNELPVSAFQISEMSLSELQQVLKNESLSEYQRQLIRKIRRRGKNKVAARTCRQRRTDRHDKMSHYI

[10] = reduction of Shn3 3'UTR-driven luciferase in osteoblasts – cell-based, Clone20 osteoblasts, firefly luciferase, cherry-picked, dose response (AID 624132); format: functional;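 further: firefly luciferase luminescence from reporter carrying the Shn3 3'UTR in osteoblasts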
[11] = loss of viability in HepG2 cells – cell-based, CellTiter-Glo, cherry-picked, cytotoxicity control for Shn3 inhibitor project, dose response (AID 624134); format: functional
[12] = non-specific 3'UTR reporter inhibition in Clone20-Shn3RL – cell-based, Renilla luciferase, cherry-picked, counter-screen for Shn3 inhibitor project, dose response (AID 624133); format: functional
[13] = biological target: T7, Ubiquitin-conjugating enzyme E2 N (Homo sapiens, UniProt P61088); format: functional;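 further: Dose-response confirmation in a TR-FRET assay detecting UBC13-driven polyubiquitin chain formation, inhibition measured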
T7 sequence (P61088 whole entry): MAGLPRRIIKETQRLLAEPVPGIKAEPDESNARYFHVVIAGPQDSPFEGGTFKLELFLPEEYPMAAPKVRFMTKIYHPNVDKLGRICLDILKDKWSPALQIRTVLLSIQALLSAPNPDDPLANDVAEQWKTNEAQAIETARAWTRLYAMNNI

[14] = P. falciparum Dd2 growth inhibitors, dose response, SYBR Green, cherry-picked samples (AID 1159567); format: functional, cell-based
[15] = toxicity to human HepG2 hepatoma cells – cell-based, plate reader, dry powder samples, cytotoxicity control, dose response (AID 1159569); format: functional;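 further: inhibitor potency with signal falling toward the positive control level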
[16] = growth inhibition of PfATP4-mutant resistant parasites – NITD609-resistant line, SYBR Green, dry powder, dose response (AID 1159571); format: functional, cell-based;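 further: parasites synchronized at ring stage by sorbitol before testing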
[17] = growth inhibition of yeast DHODH-expressing 3D7 parasites – SYBR Green, dry powder samples, dose response (AID 1159570); format: functional, cell-based;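 further: parasite growth measured after 72 hours of compound exposure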
[18] = Dd2 malaria parasite growth inhibition potency – SYBR Green, dry powder samples, dose response (AID 1159566); format: functional, cell-based;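 further: potency for growth inhibition with lower SYBR green DNA signal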

Mitogen-activated protein kinase 10, sequence (P53779 whole entry): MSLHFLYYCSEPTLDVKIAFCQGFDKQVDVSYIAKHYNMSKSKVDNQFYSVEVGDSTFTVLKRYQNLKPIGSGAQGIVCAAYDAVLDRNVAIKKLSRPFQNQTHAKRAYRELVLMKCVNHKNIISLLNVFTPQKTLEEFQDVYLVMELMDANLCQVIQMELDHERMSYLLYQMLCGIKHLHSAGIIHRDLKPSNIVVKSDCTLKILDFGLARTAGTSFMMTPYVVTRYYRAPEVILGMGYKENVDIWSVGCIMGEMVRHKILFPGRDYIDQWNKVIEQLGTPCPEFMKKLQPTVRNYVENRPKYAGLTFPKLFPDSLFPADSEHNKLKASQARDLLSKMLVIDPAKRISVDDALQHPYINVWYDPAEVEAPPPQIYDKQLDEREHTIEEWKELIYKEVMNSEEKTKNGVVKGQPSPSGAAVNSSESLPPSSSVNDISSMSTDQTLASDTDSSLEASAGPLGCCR

## CCc1nnc(NS(=O)(=O)c2ccc(NC(=O)COc3ccc4ccccc4c3)cc2)s1
Leucine aminopeptidase
  IC50: 5.1 µM (active)

## CC(C)(C)C1CCc2onc(C(=O)NCc3ccc(F)cc3)c2C1 (stereo unspecified)
[1]
  AC50: 21.9 µM (active)
[2]
  IC50: > 50 µM (not active)
[3]
  AC50: 37 µM (active)
[4]
  AC50: 2.91 µM (active)
[5]
  AC50: 23 µM (active)

## CCCC(=O)OCCNc1cc(SCCC(=O)OC)c2nonc2c1[N+](=O)[O-]
Protein RecA
  EC50: 4.87 µM (active)
[6]
  AC50: 2.88 µM (active)
[7]
  IC50: > 50 µM (not active)

## CC(C)Oc1ccc(CCc2nnc(S)n2Cc2ccccc2)cc1
[2]
  IC50: 4.67 µM (not active)

## c1ccc(-n2nc3ccc4c[nH]nc4c3n2)cc1
[8]
  IC50: 43 µM (not active)
H4
  EC50: 0.327 µM (active)
[9]
  EC50: > 120 µM (not active)
Protein skinhead-1
  IC50: > 100 µM (inactive)

## CC1=CC(=C2C(=O)c3ccccc3C2=O)C=C(C)N1Cc1ccco1
[8]
  IC50: 22.9 µM (not active)

## O=C(O)CC12CC3CC(C1)CC(n1ncc(NCc4ccc(F)cc4)c(Cl)c1=O)(C3)C2
Leucine aminopeptidase
  IC50: 54 µM (active)

## COc1ccc(C(=O)NCc2cn3c(C)csc3n2)cc1OC
[8]
  IC50: > 31 µM (not active)

## CCC1S/C(=C(\C#N)C(N)=O)N(c2ccc(F)cc2)C1=O (stereo unspecified)
[8]
  IC50: 32.6 µM (not active)

## CC1CCC2C(=O)N(c3ccc(Cc4ccncc4)cc3)C(=O)C2C1 (stereo unspecified)
[10]
  AC50: 2.65 µM (active)
[11]
  AC50: 47.7 µM (active)
[2]
  IC50: 13.3 µM (not active)
[12]
  AC50: 5.74 µM (active)

## CCOC(=O)C1=C(C)OC(N)=C(C#N)C1c1cc2ccccc2nc1N1CCCCC1 (stereo unspecified)
[8]
  IC50: > 93.1 µM (not active)

## Cc1ccc(Nc2cnn(C34CC5CC(CC(CC(=O)O)(C5)C3)C4)c(=O)c2Cl)cc1
Leucine aminopeptidase
  IC50: 44.1 µM (active)

## Cc1ccc(/N=C2\C(Cl)=C(O)OC2OC(=O)c2ccccc2C)cc1 (stereo unspecified)
[13]
  IC50: > 20 µM (inactive)
[2]
  IC50: 12.6 µM (not active)

## CO[C@H]1CN(C)C(=O)c2cc(NC(=O)C3CC3)ccc2OC[C@H](C)N(Cc2cc(F)ccc2F)C[C@H]1C
[14]
  AC50: 2.14 µM (active)
[15]
  AC50: 45.2 µM (active)
[16]
  AC50: 1.99 µM (active)
[17]
  AC50: 4.89 µM (active)
[18]
  AC50: 1.35 µM (active)
